Measured values reported in patent publication US9302967B2, “Substituted cathechols as inhibitors of IL-4 and IL-5 for the treatment of bronchial asthma” (Council of Scientific & Industrial Research, priority 2011, dated 2016).
Like-named read-outs stand apart in the source and are kept apart here.

Columns and labels:
[1] = system: oral KB carcinoma cell line; conditions: cited from earlier work
[2] = mouse, in vivo
Experimental: (§1) Earlier, LD50 of ICB 14 C6 was derived from in vitro cytotoxicity assay by NRUmethod in 3T3 cells. […] For 90d sub-chronic toxicity study the highest dose selected was one-fourth of the limit dose. Four different doses of ICB14 C6 (47, 23, 12 and 0 [vehicle] mg/kg body weight) were prepared in ground nut oil daily for 5 days a week for 90d.
Blood samples were taken from the retro-orbital sinus on day 91 for hematological and clinical chemistry analyses. Clinical analysis included serum creatinine, serum gammaGT, serum uric acid, serum glucose, serum protein, serum bilirubin, serum GOT/AST and serum GPT/ALT. Hematology including white blood cell count was analyzed with the help of Automatic Hematology Analyzer (Medonic).
The blood left after the hematological studies were allowed to clot for 2 h and serum separated by centrifugation at 3000 rpm for 5 min and subsequently used for clinical biochemistry using kits from Spinreact S.A. (Girona, Spain). Procedural details given in the technical bulletin were followed for the measurement of different serum parameters.

[3] = mouse, in vivo; remark: listed apart in the source
Experimental: as §1
Compound 1 of formula I was administered by oral gavage in water using blunt ended steel canula.
On each working day, all mice were inspected and observations recorded. All the mice were weighed weekly.
From the day of administering the drug, 30 min cage side observation of the animals were performed every day (5 days a week) till the day of sacrifice. No signs and symptoms of restlessness, perinasal wetness and rapid rate of respiration were observed post administration. […] On the 12th week we found the mouse in a shrunken state as it was kept in the deep freezer.

[4] = design: species or system mice; conditions: mouse, in vivo
Experimental: 14 d acute oral toxicity of compound 1 of formula I was performed. Three doses were selected: 47, 23, 12 and 0 mg/kg bw (Vehicle control) of compound 1 of formula I was administered by single oral gavage using blunt ended steel canula.
Before sacrifice, blood was drawn from the retro-orbital sinus of mice and rats with the help of non-heparinised capillary tubes and hematological parameters were assessed with the help of Automatic Hematology Analyzer (Medonic).

[5] = 90 d sub-chronic oral toxicity: immunotoxicity; type: in vivo
Experimental: Immunotoxicity in mice was performed in accordance to EPA guideline (1998). […] Humoral immunity was measured in terms of HA titer and plaque forming cell assay. […] Cell mediated immunity was measured in terms of % increase in paw volume in mice sensitized with SRBC.
as §1

Q: What does the source list for `C=CCc1ccc(O)c(O)c1` [Compound 1, 4-allyl-benzene-1,2-diol]?
A: cell cycle arrest and apoptosis [1]: induce cell cycle arrest and apoptosis; Activities of AST, ALT and gammaGT enzymes vs normal range [2]: within the normal range; Bilirubin ([2]; 12 mg/kg): 0.91 ± 0.47 mg/dL; Creatinine ([2]; 12 mg/kg): 1.03 ± 0.48 mg/dL; GOT/AST ([2]; 12 mg/kg): 12.25 ± 2.18 U/L; GPT/ALT ([2]; 12 mg/kg): 8.56 ± 3.79 U/L; Glucose ([2]; 12 mg/kg): 79.89 ± 22.82 mg/dL; LDH ([2]; 12 mg/kg): 175.3 ± 18 U/L; Total protein ([2]; 12 mg/kg): 8.63 ± 1.81 g/dL; Uric acid ([2]; 12 mg/kg): 6.05 ± 3.9 mg/dL; gammaGT ([2]; 12 mg/kg): 12.73 ± 6.74 U/L; Bilirubin ([2]; 23 mg/kg): 0.37 ± 012 mg/dL; Creatinine ([2]; 23 mg/kg): 1.10 ± 0.65 mg/dL; GOT/AST ([2]; 23 mg/kg): 13.56 ± 6.88 U/L; GPT/ALT ([2]; 23 mg/kg): 12.84 ± 7.9 U/L; Glucose ([2]; 23 mg/kg): 61.66 ± 13.08 mg/dL; LDH ([2]; 23 mg/kg): 198.6 ± 27 U/L; Total protein ([2]; 23 mg/kg): 6.52 ± 2.61 g/dL; Uric acid ([2]; 23 mg/kg): 7.15 ± 0.62 mg/dL; gammaGT ([2]; 23 mg/kg): 15.29 ± 5.38 U/L; Bilirubin ([2]; 47 mg/kg): 0.54 ± 0.39 mg/dL; Creatinine ([2]; 47 mg/kg): 1.36 ± 0.56 mg/dL; GOT/AST ([2]; 47 mg/kg): 5.30 ± 1.55 U/L; GPT/ALT ([2]; 47 mg/kg): 5.71 ± 9.89 U/L; Glucose ([2]; 47 mg/kg): 86.42 ± 6.39 mg/dL; LDH ([2]; 47 mg/kg): 210.5 ± 25 U/L; Total protein ([2]; 47 mg/kg): 7.78 ± 1.37 g/dL; Uric acid ([2]; 47 mg/kg): 5.59 ± 1.26 mg/dL; gammaGT ([2]; 47 mg/kg): 15.66 ± 2.63 U/L; cage side observation [3]: All the animals appeared normal; feed and water consumption [3]: comparable to sham controls; necropsy findings in vital organs [3]: no gross or microscopic lesion; mortality ([3]; 47 mg/kg, 90 d): on the 11th weekend it died; GRAN ([4]; 12 mg/kg): 9.82 ± 3.49%; HCT ([4]; 12 mg/kg): 39.72 ± 5.27%; HGB ([4]; 12 mg/kg): 12.6 ± 2.50 g/dL; LYMF ([4]; 12 mg/kg): 8.54 ± 14.39%; MCV ([4]; 12 mg/kg): 41.76 ± 1.268 μm^3; MPV ([4]; 12 mg/kg): 6.96 ± 0.33 μm^3; PLT ([4]; 12 mg/kg): 588 ± 198 10^3/mm^3; RBC ([4]; 12 mg/kg): 9.52 ± 1.313 ×10^6/mm^3; WBC ([4]; 12 mg/kg): 9.1 ± 0.86 ×10^3/mm^3; GRAN ([4]; 23 mg/kg): 10.8 ± 2.30%; HCT ([4]; 23 mg/kg): 42.05 ± 7.86%; HGB ([4]; 23 mg/kg): 13.22 ± 1.72 g/dL; LYMF ([4]; 23 mg/kg): 2.12 ± 3.45%; MCV ([4]; 23 mg/kg): 41.675 ± 2.069 μm^3; MPV ([4]; 23 mg/kg): 6.95 ± 0.36 μm^3; PLT ([4]; 23 mg/kg): 518 ± 40 10^3/mm^3; RBC ([4]; 23 mg/kg): 10.05 ± 1.477 ×10^6/mm^3; WBC ([4]; 23 mg/kg): 13.52 ± 2.71 ×10^3/mm^3; GRAN ([4]; 47 mg/kg): 9.46 ± 2.33%; HCT ([4]; 47 mg/kg): 39.12 ± 1.76%; HGB ([4]; 47 mg/kg): 13.2 ± 0.65 g/dL; LYMF ([4]; 47 mg/kg): 1.0 ± 0.87%; MCV ([4]; 47 mg/kg): 40.45 ± 1.126 μm^3; MPV ([4]; 47 mg/kg): 7.1 ± 0.32 μm^3; PLT ([4]; 47 mg/kg): 476.5 ± 124^ 10^3/mm^3; RBC ([4]; 47 mg/kg): 9.74 ± 0.749 ×10^6/mm^3; WBC ([4]; 47 mg/kg): 11.02 ± 2.61 ×10^3/mm^3; Bone marrow cell viability % ([5]; 90 d, 12 mg/kg bw): 97.26 ± 0.88%; Lymph node lymphocyte viability % (pooled) ([5]; 90 d, 12 mg/kg bw): 97.40 ± 0.61%; Splenocyte viability % ([5]; 90 d, 12 mg/kg bw): 96.79 ± 0.36%; Bone marrow cell viability % ([5]; 90 d, 23 mg/kg bw): 96.80 ± 1.15%; Lymph node lymphocyte viability % (pooled) ([5]; 90 d, 23 mg/kg bw): 98.28 ± 0.80%; Splenocyte viability % ([5]; 90 d, 23 mg/kg bw): 96.56 ± 0.80%; Bone marrow cell viability % ([5]; 90 d, 47 mg/kg bw): 95.45 ± 0.31%; Lymph node lymphocyte viability % (pooled) ([5]; 90 d, 47 mg/kg bw): 98.17 ± 0.05%; Splenocyte viability % ([5]; 90 d, 47 mg/kg bw): 96.45 ± 0.62%; Lymph node lymphocyte, splenocytes and bone marrow cell viabilities ([5]; 90 d, all the groups): > 94%; B cell function (PFC) ([5]; mouse, in vivo): Dose dependant decrease in B cell function; Total IgA ([5]; mouse, in vivo, 12 mg/kg): 264.25 ± 28.6 ng/mL; Total IgE ([5]; mouse, in vivo, 12 mg/kg): 0.69 ± 0.115; Total IgG ([5]; mouse, in vivo, 12 mg/kg): 12.98 ± 0.53 mg/mL; Total IgM ([5]; mouse, in vivo, 12 mg/kg): 6.65 ± 0.13; DTH response (% increase in paw volume) ([5]; mouse, in vivo, 12 mg/kg, 90 d): 12.12 ± 2.96%; HA tire (reciprocal of the last dilution showing positive reaction) ([5]; mouse, in vivo, 12 mg/kg, 90 d): 1280; PFC ([5]; mouse, in vivo, 12 mg/kg, 90 d): 5533 ± 437 per 10^6lymphocytes; Total IgA ([5]; mouse, in vivo, 23 mg/kg): 207.25 ± 9.7 ng/mL; Total IgE ([5]; mouse, in vivo, 23 mg/kg): 0.74 ± 0.23; Total IgG ([5]; mouse, in vivo, 23 mg/kg): 15.21 ± 0.31 mg/mL; Total IgM ([5]; mouse, in vivo, 23 mg/kg): 0.57 ± 0.17; DTH response (% increase in paw volume) ([5]; mouse, in vivo, 23 mg/kg, 90 d): 11.55 ± 3.77%; HA tire (reciprocal of the last dilution showing positive reaction) ([5]; mouse, in vivo, 23 mg/kg, 90 d): 640; PFC ([5]; mouse, in vivo, 23 mg/kg, 90 d): 4911 ± 873 per 10^6lymphocytes; Total IgA ([5]; mouse, in vivo, 47 mg/kg): 167 ± 2.12 ng/mL; Total IgE ([5]; mouse, in vivo, 47 mg/kg): 0.65 ± 0.09; Total IgG ([5]; mouse, in vivo, 47 mg/kg): 6.11 ± 0.25 mg/mL; Total IgM ([5]; mouse, in vivo, 47 mg/kg): 1.02 ± 0.30; DTH response (% increase in paw volume) ([5]; mouse, in vivo, 47 mg/kg, 90 d): 11.28 ± 3.69%; HA tire (reciprocal of the last dilution showing positive reaction) ([5]; mouse, in vivo, 47 mg/kg, 90 d): 320; PFC ([5]; mouse, in vivo, 47 mg/kg, 90 d): 1849 ± 780 per 10^6lymphocytes
